For data set [1], the target named is T1, human thrombin (Homo sapiens, UniProt P00734).
T1 construct: human thrombin
The data set is described as follows: Inactivation rate of human thrombin. In kind it is biochemical. The conditions noted are these: Table VIII; pH 7.5, 25° C; [I] 1.2-54 μM; read-out: kobs/[I]. The procedure:
(§1) Inactivation rates of serine proteases by substituted isocoumarins were measured by the incubation method. An aliquot of inhibitor (25 or 50 μl) in Me2 SO was added to a buffered enzyme solution (0.01-2.3 μM) to initiate the inactivation. Aliquots (50 μl) were withdrawn at various intervals and the residual enzymatic activity was measured. Me2 SO concentration in the reaction mixture was 8-12% (v/v). 0.1 Hepes, 0.01M CaCl2, pH 7.5 buffer was utilized for trypsin and coagulation enzymes. 0.1M Hepes, 0.5M NaCl, pH 7.5 was utilized for other serine proteases. The inhibitor concentrations are shown in all the tables. Peptide thioesters or peptide nitroanilides with appropriate sequence were used as substrates for various serine proteases. All peptide thioester hydrolysis rates were measured with assay mixtures containing 4,4'-dithiodipyridine (ε324 =19800M^-1 cm^-1; Grasetti & Murray, Arch. Biochem. Biophys. 119, pp 41-49 (1967)). Peptide 4-nitroanilide nitroanilide hydrolysis was measured at 410 nm (ε410 =8800M^-1 cm^-1; Erlanger et al., Arch. Biochem. Biophys. 95, pp 271-278 (1961)). First order inactivation rate constant (kobs) were obtained from plots of ln (vt /vo) vs time, and the correlation coefficients were greater than 0.98.
(§2) ^a Inhibition rates were measured in 0.1M Hepes, 0.01M CaCl2, pH
(§3) 7.5 buffer, 8% Me2 SO and at 25° C.

Data set [2] deals with T2, bovine trypsin (Bos taurus, UniProt P00760).
T2 sequence (P00760 24-246): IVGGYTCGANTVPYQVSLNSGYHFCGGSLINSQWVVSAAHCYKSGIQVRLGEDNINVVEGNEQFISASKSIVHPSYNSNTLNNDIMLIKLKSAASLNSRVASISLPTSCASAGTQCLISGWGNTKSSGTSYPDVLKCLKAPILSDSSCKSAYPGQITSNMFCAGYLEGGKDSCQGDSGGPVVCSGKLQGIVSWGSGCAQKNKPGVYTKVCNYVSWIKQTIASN
The data set is described as follows: Inactivation rate of bovine trypsin. In kind it is biochemical. The conditions noted are these: Table VIII; pH 7.5, 25° C; [I] 1.1-4.6 μM; read-out: kobs/[I]. As to the method:
as §1
(§4) ^a Conditions were as 0.1M Hepes, 0.01M CaCl2, pH 7.5 and 8-12%
(§5) Me2 SO and 25° C. Rate constants were measured by incubation
(§6) method unless otherwise noted. An aliquot of inhibitor was added to an
(§7) enzyme solution and aliquots removed with time and assayed for remaining
(§8) enzymatic activity. Firstorder rate constants, kobs were obtained
(§9) from the plots of ln(vt /vo) versus time.
as §2, §3

Data set [3] deals with T3, rat skin tryptase (Rattus norvegicus, UniProt P27435).
T3 construct: from tissue; host or cells: rat skin
T3 sequence (P27435 29-273): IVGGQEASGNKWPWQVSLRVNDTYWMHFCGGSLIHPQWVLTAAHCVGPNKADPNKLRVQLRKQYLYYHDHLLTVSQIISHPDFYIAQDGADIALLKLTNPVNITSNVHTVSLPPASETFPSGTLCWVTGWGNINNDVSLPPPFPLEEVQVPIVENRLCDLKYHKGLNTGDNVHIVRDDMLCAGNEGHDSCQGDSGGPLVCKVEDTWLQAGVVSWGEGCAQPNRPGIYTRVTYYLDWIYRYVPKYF
Kind of data set: Inactivation rate of rat skin tryptase. It is filed as biochemical. The conditions noted are these: pH 7.5, Table IX; pH 7.5, 25° C; [I] 0.42-0.51 μM; read-out: kobs/[I]. As to the method:
as §1
^b Inactivation rates were measured at 25 mM phosphate, 0.5M NaCl, 1
mM EDTA, pH 7.5 buffer, 9% Me2 SO and 25° C.
as §2
(§10) 7.5 buffer for human plasmin; 25 mM Phosphate, 0.5M NaCl, 1 mM EDTA, pH
(§11) 7.5 buffer for rat skin tryptase and 0.1M Hepes, 0.5M NaCl, pH 7.5 for
(§12) human lung tryptase, human skin tryptase and rt-PA. All enzymes were
(§13) assayed with ZArg-SBzl (0.07 mM) in the presence of 4,4dithiodipyridine
(§14) (0.33 mM). Reaction mixtures contained 8% Me2 SO and assays were […]

In data set [4] the target is T4, bovine thrombin (Bos taurus, UniProt P00735).
T4 construct: bovine thrombin
The data set is described as follows: Inactivation rate of bovine thrombin. The conditions noted are these: Table VIII; pH 7.5, 25° C; [I] 1.2-54 μM; read-out: kobs/[I]. It is filed as biochemical. As to the method:
as §1, §4, §5, §6, §7, §8, §9, §2, §3

The target of data set [5] is human lung tryptase. Kind of data set: Inactivation rate of human lung tryptase. It is filed as biochemical. The following applies: Table IX; for kobs/[I]: pH 7.5, 25° C, [I] 0.42-0.47 μM. The procedure:
as §1
^a Inactivation rates were measured at 0.1M Hepes, 0.5M NaCl, pH 7.5
buffer, 8% Me2 SO and 25° C.
as §2, §10, §11, §12, §13, §14

Data set [6] is described as follows: Spontaneous hydrolysis in Hepes buffer. It is filed as physicochemical. The conditions noted are these: 0.1 Hepes, 0.5M NaCl, pH 7.5, 9% Me2SO, 25° C. As to the method: ^a Conditions were 0.1 Hepes, 0.5M NaCl, pH 7.5 and 9% Me2 SO at
25° C. Spontaneous hydrolysis rates were measured
spectrophotometrically by monitoring the decrease in absorbance due to th
isocoumarin ring system (wavelength 335-380 nm) using the firstorder rate

The target of data set [7] is recombinant human tissue plasminogen activator (Homo sapiens, UniProt P00750). The data set is described as follows: Inactivation rate of recombinant human tissue plasminogen activator. The conditions noted are these: for kinact/KI: pH 7.5, Table IX, pH 7.5, 25° C, [I] 3.5-5.0 μM, read-out: kobs/[I]. It is filed as biochemical. The procedure:
as §1
^a Inactivation constants were measured at 0.1M Hepes, 0.5M NaCl (or
as §2, §10, §11, §12, §13, §14

Data set [8] deals with T5, cathepsin G (Homo sapiens, UniProt P08311).
T5 construct: from tissue; host or cells: human leukocytes
T5 sequence (P08311 21-255): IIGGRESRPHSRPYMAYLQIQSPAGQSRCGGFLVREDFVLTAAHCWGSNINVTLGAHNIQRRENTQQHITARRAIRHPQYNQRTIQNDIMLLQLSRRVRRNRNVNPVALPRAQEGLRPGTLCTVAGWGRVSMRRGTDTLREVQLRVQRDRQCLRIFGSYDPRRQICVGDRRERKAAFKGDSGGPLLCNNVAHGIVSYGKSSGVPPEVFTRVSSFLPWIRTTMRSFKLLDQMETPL
The data set is described as follows: Inactivation of cathepsin G. The following applies: Table X; pH 7.5, 25° C; [I] 33-46 μM; read-out: kobs/[I]. In kind it is biochemical.
Description: (§15) Inactivation rates of serine proteases by substituted isocoumarins were measured by the incubation method. An aliquot of inhibitor (25 or 50 μl) in Me2 SO was added to a buffered enzyme solution (0.01-2.3 μM) to initiate the inactivation. Aliquots (50 μl) were withdrawn at various intervals and the residual enzymatic activity was measured. Me2 SO concentration in the reaction mixture was 8-12% (v/v). 0.1 Hepes, 0.01M CaCl2, pH 7.5 buffer was utilized for trypsin and coagulation enzymes. 0.1M Hepes, 0.5M NaCl, pH 7.5 was utilized for other serine proteases. […] Peptide thioesters or peptide nitroanilides with appropriate sequence were used as substrates for various serine proteases. All peptide thioester hydrolysis rates were measured with assay mixtures containing 4,4'-dithiodipyridine (ε324 =19800M^-1 cm^-1 ; Grasetti & Murray, Arch. Biochem. Biophys. 119, pp 41-49 (1967)). Peptide 4-nitroanilide nitroanilide hydrolysis was measured at 410 nm (ε410 =8800M^-1 cm^-1 ; Erlanger et al., Arch. Biochem. Biophys. 95, pp 271-278 (1961)). First order inactivation rate constant (kobs) were obtained from plots of ln (vt /vo) vs time, and the correlation coefficients were greater than 0.98.
(§16) ^a Inactivation rates were measured at 0.1M Hepes, 0.5 NaCl, pH 7.5,
(§17) 8-12% Me2 SO and 25° C. by incubation method.
and assayed for remaining activity.
(§18) ^a Inhibition rates were measured in 0.1M Hepes, 0.05M NaCl, pH 7.5
buffer, 8-9% Me2 SO and at 25° C.
Me2 SO, pH 7,5 and at 25° C.
(§19) ^a Inhibition was measured in 0.1M Hepes, 0.5M NaCl, pH 7.5 buffer,
(§20) 5-10% Me2 SO and at 25° C. Suc--Val--Pro--Phe--NA (0.48 mM)
(§21) was used as the substrate for chymotrypsin and cat G.

For data set [9], the target named is T6, human leukocyte elastase (HLE) (Homo sapiens, UniProt P08246).
T6 construct: from tissue; host or cells: human leukocytes (from the name)
T6 sequence (P08246 30-267): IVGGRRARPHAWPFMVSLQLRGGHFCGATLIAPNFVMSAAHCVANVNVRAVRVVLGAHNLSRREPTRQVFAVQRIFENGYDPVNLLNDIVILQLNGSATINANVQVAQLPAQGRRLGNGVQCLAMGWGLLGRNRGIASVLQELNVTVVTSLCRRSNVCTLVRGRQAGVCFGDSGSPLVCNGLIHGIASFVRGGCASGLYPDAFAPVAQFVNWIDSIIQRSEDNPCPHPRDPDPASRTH
Kind of data set: Inactivation of human leukocyte elastase (HLE). It is filed as biochemical. The conditions noted are these: Table X; pH 7.5, 25° C; [I] 2.1-42 μM; read-out: kobs/[I].
Description: as §15, §16, §17, §18
buffer, 8-9% Me2 SO and at 25° C.
^a Inhibition constants were in 0.1M Hepes, 0.5M NaCl, pH 7.5 buffer,
8-9% Me2 SO and at 25° C.
^a Inhibition rates were measured in 0.1M Hepes, 0.5M NaCl, 2.5%
Me2 SO, pH 7,5 and at 25° C.
as §19, §20, §21
^a Inhibition rates were measured in 0.1M Hepes, 0.5M NaCl, pH 7.5

Data set [10] deals with chymotrypsin (Bos taurus, UniProt P00766). Kind of data set: Inactivation of chymotrypsin. The conditions noted are these: Table X, read-out: kobs/[I]. It is filed as biochemical, bovine.
The target in data set [11] is T7, human factor Xa (Homo sapiens, UniProt P00742).
T7 construct: human factor Xa
T7 sequence (P00742 235-488 limits assumed): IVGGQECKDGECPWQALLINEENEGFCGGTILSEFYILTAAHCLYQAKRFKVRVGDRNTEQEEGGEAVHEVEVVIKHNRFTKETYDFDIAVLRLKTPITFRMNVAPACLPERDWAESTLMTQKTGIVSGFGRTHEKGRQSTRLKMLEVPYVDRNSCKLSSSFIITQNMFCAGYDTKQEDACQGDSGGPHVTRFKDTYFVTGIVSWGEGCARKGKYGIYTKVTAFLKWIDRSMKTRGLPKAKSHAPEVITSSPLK
T7 sequence (P00742 41-179 partner limits assumed): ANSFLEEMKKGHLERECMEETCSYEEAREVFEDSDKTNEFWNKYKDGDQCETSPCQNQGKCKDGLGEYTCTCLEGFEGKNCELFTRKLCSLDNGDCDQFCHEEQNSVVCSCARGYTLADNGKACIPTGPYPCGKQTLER
The data set is described as follows: Inactivation rate of human factor Xa. It is filed as biochemical. The conditions noted are these: Table VIII; pH 7.5, 25° C; [I] 3.6-44 μM; read-out: kobs/[I]. As to the method: as §1, §4, §5, §6, §7, §8, §9, §2, §3

The target in data set [12] is T8, human factor XIIa (Homo sapiens, UniProt P00748).
T8 construct: human factor XIIa
T8 sequence (P00748 373-615 limits assumed): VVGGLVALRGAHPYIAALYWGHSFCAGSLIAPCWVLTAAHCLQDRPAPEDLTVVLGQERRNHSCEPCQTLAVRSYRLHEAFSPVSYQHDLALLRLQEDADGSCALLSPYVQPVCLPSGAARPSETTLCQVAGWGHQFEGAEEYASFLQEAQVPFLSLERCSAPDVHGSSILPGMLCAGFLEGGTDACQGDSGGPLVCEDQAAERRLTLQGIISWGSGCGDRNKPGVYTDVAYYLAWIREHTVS
T8 sequence (P00748 20-372 partner limits assumed): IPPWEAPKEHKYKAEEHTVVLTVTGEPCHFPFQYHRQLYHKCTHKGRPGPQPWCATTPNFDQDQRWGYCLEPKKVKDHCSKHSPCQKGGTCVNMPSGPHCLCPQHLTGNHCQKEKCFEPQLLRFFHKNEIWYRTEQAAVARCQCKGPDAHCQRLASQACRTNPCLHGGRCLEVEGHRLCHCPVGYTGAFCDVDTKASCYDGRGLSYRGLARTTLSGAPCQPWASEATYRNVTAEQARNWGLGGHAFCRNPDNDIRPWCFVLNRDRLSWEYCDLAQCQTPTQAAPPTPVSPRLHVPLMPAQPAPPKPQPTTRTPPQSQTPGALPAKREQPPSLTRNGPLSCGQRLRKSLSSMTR
Kind of data set: Inactivation rate of human factor XIIa. In kind it is biochemical. The conditions noted are these: Table VIII; pH 7.5, 25° C; [I] 3.6-4.9 μM; read-out: kobs/[I]. As to the method: as §1, §4, §5, §6, §7, §8, §9, §2, §3

The structures appear in SMILES notation. Read-outs that look alike come from different tables or passages of the source.

recombinant human tissue plasminogen activator, sequence (P00750 36-562): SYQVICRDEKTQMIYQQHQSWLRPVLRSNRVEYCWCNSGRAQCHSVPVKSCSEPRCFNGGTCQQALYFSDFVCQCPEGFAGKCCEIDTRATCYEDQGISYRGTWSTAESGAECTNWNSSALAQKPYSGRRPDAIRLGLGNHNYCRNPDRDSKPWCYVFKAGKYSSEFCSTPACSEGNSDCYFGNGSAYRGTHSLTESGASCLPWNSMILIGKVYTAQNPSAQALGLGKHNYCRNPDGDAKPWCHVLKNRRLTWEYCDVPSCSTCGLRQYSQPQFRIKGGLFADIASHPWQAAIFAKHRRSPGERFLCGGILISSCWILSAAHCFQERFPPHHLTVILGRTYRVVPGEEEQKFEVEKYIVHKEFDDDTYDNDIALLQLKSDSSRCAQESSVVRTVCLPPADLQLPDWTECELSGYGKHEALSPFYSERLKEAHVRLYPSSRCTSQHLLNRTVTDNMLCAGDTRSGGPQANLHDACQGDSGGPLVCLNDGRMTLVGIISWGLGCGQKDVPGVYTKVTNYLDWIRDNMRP

Turning to `N=C(N)SCCCOc1oc(=O)c2cc(NC(=O)CCc3ccccc3)ccc2c1Cl` [PhCH2 CH2 CONH-CiTPrOIC, 7-(3-phenylpropionylamino)-4-chloro-3-(3-isothiureidopropoxy)isocoumarin], the kinact/KI in [1] is 630 M⁻¹ s⁻¹; in data set [2], 87900 M⁻¹ s⁻¹; in [3], 170000 M⁻¹ s⁻¹; in data set [4] it was 820 M⁻¹ s⁻¹; in [7], 15000 M⁻¹ s⁻¹. In addition, in [5], the “kobs/[I]” value was 180,000 M^-1 s^-1. For the same molecule, the “t1/2 for spontaneous hydrolysis” value in data set [6] came to 1.1 h.
`CC(=O)Nc1ccc2c(Cl)c(OCCCSC(=N)N)oc(=O)c2c1` [CH3 CONH-CiTPrOIC, 7-(acetylamino)-4-chloro-3-(3-isothiureidopropoxy)isocoumarin]: the kinact/KI is 310 M⁻¹ s⁻¹ in [1]; 107000 M⁻¹ s⁻¹ in data set [2]; 99000 M⁻¹ s⁻¹ in data set [3]; 31 M⁻¹ s⁻¹ in [8]; 200 M⁻¹ s⁻¹ in [9]; 420 M⁻¹ s⁻¹ in data set [4]. The kinact/KI in data set [10] (pH 7.5, 25° C, [I] 0.9-43 μM) turned out to be 5200 M⁻¹ s⁻¹; in data set [7], 7000 M⁻¹ s⁻¹. This molecule had a percentage of inhibition in data set [5] (not time dependent, at 0.34-5.0 μM) of 60%. The “t1/2 for spontaneous hydrolysis” value in [6] was 1.13 h.
For `N=C(N)SCCCOc1oc(=O)c2cc(NC(=O)Cc3ccccc3)ccc2c1Cl` [PhCH2 CONH-CiTPrOIC, 7-(phenylacetylamino)-4-chloro-3-(3-isothiureidopropoxy)isocoumarin], the kinact/KI is 610 M⁻¹ s⁻¹ in data set [1]; 165000 M⁻¹ s⁻¹ in data set [2]; 145000 M⁻¹ s⁻¹ in data set [3]; 64 M⁻¹ s⁻¹ in data set [8]; 130 M⁻¹ s⁻¹ in data set [9]; 600 M⁻¹ s⁻¹ in [4]. The kinact/KI in data set [10] (pH 7.5, second order rate, equal molar enzyme and inhibitor) came to 260000 M⁻¹ s⁻¹; in [7] it was 9000 M⁻¹ s⁻¹. The “kobs/[I]” value in [5] was 140,000 M^-1 s^-1. For the same molecule, the “t1/2 for spontaneous hydrolysis” value in data set [6] was 1.02 h.
In the case of `N=C(N)SCCOc1oc(=O)c2cc(NC(=O)[C@@H](N)Cc3ccccc3)ccc2c1Cl` [L-Phe--NH-CiTEtOIC, 7-(L-phenylalanylamino)-4-chloro-3-(2-isothiureidoethoxy)isocoumarin], the kinact/KI worked out at 3770 M⁻¹ s⁻¹ in [11]; 107000 M⁻¹ s⁻¹ in [12]; 1340 M⁻¹ s⁻¹ in data set [1]; 650000 M⁻¹ s⁻¹ in data set [3]; 53 M⁻¹ s⁻¹ in data set [8]; 1280 M⁻¹ s⁻¹ in data set [4]. Besides, the kinact/KI in data set [10] (pH 7.5, 25° C, [I] 0.9-43 μM) came out at 8400 M⁻¹ s⁻¹; in data set [7], 13000 M⁻¹ s⁻¹. Moreover, the “kobs/[I]” value in [5] is 260,000 M^-1 s^-1.
On to `C[C@H](N)C(=O)N[C@@H](C)C(=O)Nc1ccc2c(Cl)c(OCCSC(=N)N)oc(=O)c2c1` [Ala--Ala--NH-CiTEtOIC, 7-(L-alanyl-L-alanylamino)-4-chloro-3-(2-isothiureidoethoxy)isocoumarin], for which the kinact/KI in [11] was found to be 1490 M⁻¹ s⁻¹; in data set [1] it was 880 M⁻¹ s⁻¹; in data set [4], 1070 M⁻¹ s⁻¹.
In the case of `N=C(N)SCCOc1oc(=O)c2cc(NC(=O)Cc3ccccc3)ccc2c1Cl` [PhCH2 CONH-CiTEtOIC, 7-(phenylacetylamino)-4-chloro-3-(2-isothiureidoethoxy)isocoumarin], the kinact/KI in data set [11] stood at 3630 M⁻¹ s⁻¹; in data set [12], 59000 M⁻¹ s⁻¹; in [1], 6730 M⁻¹ s⁻¹; in [3], 120000 M⁻¹ s⁻¹; in data set [4], 15800 M⁻¹ s⁻¹. Also, the “kobs/[I]” value in data set [5] is recorded as 110,000 M^-1 s^-1. The percentage of inhibition in [7] (Table IX, not time dependent, at 0.34-5.0 μM) was 64%.
Consider `CC(C)(C)OC(=O)N[C@@H](Cc1ccccc1)C(=O)Nc1ccc2c(Cl)c(OCCSC(=N)N)oc(=O)c2c1` [Boc-L-Phe--NH-CiTEtOIC, 7-(N-t-butyloxycarbonyl-L-phenylalanylamino)-4-chloro-3-(2-isothiureidoethoxy)isocoumarin], for which the kinact/KI in data set [11] worked out at 1620 M⁻¹ s⁻¹; in data set [1], 1140 M⁻¹ s⁻¹; in [4], 1090 M⁻¹ s⁻¹.

For the origin of these results see patent US5324648A, “Substituted isocoumarins as serine protease inhibitors and anti-inflammatory agents” (Georgia Tech Research Corporation, priority 1992, dated 1994).
